Legend:
[1] = test system: mouse model of allergic rhinitis; test: Mouse allergic rhinitis model (OVA-induced sneezing and nasal rubbing); format: in vivo; details: 10 mg/kg administered as the sodium salt, oral gavage 1 hour prior to OVA challenge; significantly reduced, approximately
Method: The compounds ability to inhibit allergen-induced sneezing and nasal rubbing is assessed using a mouse model of allergic rhinitis. Methods were adapted from those detailed in Nakaya, M., et al. 2006, Laboratory Investigation, 86:917-926. Female BALB/c mice (20-25 g) are immunized by an intraperitoneal injection (i.p.) of 10 μg ovalbumin (OVA) complexed with alum in a volume 0.2 mL on days 0 and 7. Fourteen days later (day 21) mice are challenged intranasally with 20 μl of a 10 mg/mL solution of OVA. The challenge period occurs daily from days 21 to day 23. Mice (5-7/group) are randomly assigned to receive either compound or vehicle and are treated by oral gavage 1 hour prior to OVA challenge. The number of sneezes and nasal rubs are counted by an independent blinded observe during a period of 8 minutes immediately following OVA challenge on days 21, 23 and […]. A significant increase in allergen-induced sneezing and nasal rubbing occurs over the 3-day challenge period. Inhibition of this effect by select compounds is determined statistically using Graphpad prism.

human DP2 receptor = target: T1, human DP2 receptor (Homo sapiens, UniProt Q9Y5Y4); test: DP2/CRTH2 radioligand binding assay using [3H]PGD2; details: membranes of HEK293 cells expressing recombinant human DP2, 1 nM [3H]PGD2; read-out: hDP2
T1 construct: expressed in transfected cells; membrane preparation
T1 sequence (Q9Y5Y4 1-395): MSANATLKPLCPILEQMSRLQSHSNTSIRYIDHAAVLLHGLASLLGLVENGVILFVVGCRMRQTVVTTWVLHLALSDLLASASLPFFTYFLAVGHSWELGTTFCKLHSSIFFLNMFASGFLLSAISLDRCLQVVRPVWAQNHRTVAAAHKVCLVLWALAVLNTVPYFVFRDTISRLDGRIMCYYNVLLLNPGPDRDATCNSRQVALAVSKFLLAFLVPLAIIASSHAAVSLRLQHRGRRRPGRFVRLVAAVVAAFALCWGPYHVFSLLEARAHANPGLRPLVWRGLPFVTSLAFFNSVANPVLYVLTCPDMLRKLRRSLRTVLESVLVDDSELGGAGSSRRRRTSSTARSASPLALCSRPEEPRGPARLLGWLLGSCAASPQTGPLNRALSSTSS
Method: The ability of a compound to bind to the human DP2 receptor is assessed via a radioligand binding assay using [^3H]PGD2. HEK293 cells stably expressing recombinant human DP2 are resuspended in 10 mM Hepes, 7.4 containing 1 mM DTT, lysed and centrifuged at 75,000×g to pellet the membranes. The membranes are resuspended in 10 mM Hepes, 7.4 containing 1 mM DTT and 10% glycerol to approximately 5 mg protein/ml. Membranes (2-10 μg protein/well) are incubated in 96-well plates with 1 nM [^3H]PGD2 and test compound in Assay Buffer (50 mM Hepes, 10 mM MnCl2, 1 mM EDTA, plus or minus 0.2% human serum albumin, pH 7.4) for 60 minutes at room temperature. The reactions are terminated by rapid filtration through Whatman GF/C glass fibre filter plates. The filter plates were pre-soaked in 0.33% polythylenimine for 30 minutes at room temperature then washed in Wash Buffer (50 mM Hepes, 0.5 M NaCl pH 7.4) prior to harvesting. After harvesting, the filter plates are washed 3 times with 1 ml cold Wash Buffer then dried. Scintillant is then added to the plates and the radioactivity retained on the filters is determined on a Packard TopCount (Perkin Elmer). Specific binding is determined as total radioactive binding minus non-specific binding in the presence of 10 μM PGD2. IC50s were determined using GraphPad prism analysis of drug titration curves.

| SMILES | IC50 (human DP2 receptor) [nM] | reduction of sneezing and nasal rubs versus vehicle-treated mice [1] |
| --- | --- | --- |
| CN([C@@H]1CCc2c(c3ncccc3n2CC(=O)O)C1)S(=O)(=O)c1ccc(F)cc1 (single isomer, unassigned) [Compound 10] | < 100 | – |
| CN([C@H]1CCc2c(c3ncccc3n2CC(=O)O)C1)S(=O)(=O)c1ccc(F)cc1 (single isomer, unassigned) [Compound 11] | > 100 | – |
| CN(C1CCc2c(c3cccnc3n2CC(=O)O)C1)S(=O)(=O)c1ccc(F)cc1 (stereo not drawn) [Compound 23, {6-[N-(4-fluoro-benzenesulfonyl)-N-methyl-amino]-7,8-dihydro-5H-pyrido[2,3-b]indol-9(6H)-yl}-acetic acid] | > 100 | – |

Now from value to molecule, other results behind:

| IC50 (human DP2 receptor) [nM] | SMILES | reduction of sneezing and nasal rubs versus vehicle-treated mice [1] |
| --- | --- | --- |
| < 100 | CN(C1CCc2c(c3ncccc3n2CC(=O)O)C1)S(=O)(=O)c1ccc(F)cc1 (racemic) [Compound 9, {8-[N-(4-fluoro-benzenesulfonyl)-N-methyl-amino]-6,7,8,9-tetrahydro-pyrido[3,2-b]indol-5-yl}-acetic acid] | 40-50% |
| > 100 | CN(C1CCc2c(c3nccnc3n2CC(=O)O)C1)S(=O)(=O)c1ccc(F)cc1 (stereo not drawn) [Compound 24, {8-[N-(4-fluoro-benzenesulfonyl)-N-methyl-amino]-6,7,8,9-tetrahydro-5H-pyrazino [2,3-b]indol-5-yl}acetic acid] | – |

— patent US20110301168A1, “CYCLOALKANE[B]AZAINDOLE ANTAGONISTS OF PROSTAGLANDIN D2 RECEPTORS” (AMIRA PHARMACEUTICALS, INC., priority 2008, published 2011)
